The test system of data set [1] is Salmonella typhimurium tester strain TA97a. Briefly: AMES testing (bacterial reverse mutation test, Salmonella/microsome assay), strain TA97a. Format: cell-based. Particulars: for increase in the number of revertants over the concurrent vehicle controls: strain TA97a; for mutagenicity (overall conclusion): strain TA97a in presence of metabolic activation, criterion 2-fold increase in revertants. From the text:
(§1) The Ames assay is a rapid, reliable and economical method for screening compounds for potential genetic activity at the nucleotide level. A large database has been accumulated with this assay, confirming its ability to detect genetically active compounds of most chemical classes with around 80 to 90% sensitivity and specificity.
(§2) With the exception of strain TA102, these strains require biotin as well as histidine for growth. In strain TA102 the critical mutation in the histidine gene is located on a multicopy plasmid pAQ1. This strain is particularly sensitive to the activities of oxidative and cross-linking mutagens. The plasmid derivatives (TA98, TA100, TA97a and TA102) have increased sensitivity to certain mutagens as the pKM101 plasmid codes for an error-prone DNA repair system^(1,3).
(§3) When exposed to a mutagen, some of the bacteria in the treated population, through chemical interaction with the compound, undergo genetic changes which cause them to revert to a non-histidine-requiring state and thus grow in the absence of exogenous histidine. Different tester strains are used because each is mutated by particular chemical classes of compound. A compound that is mutagenic in one strain need not be so in another^(1,3).
(§4) Test item: INT 3, also known as 5-fluoro-2-methyl-3-(4,4,5,5-tetramethyl-1,3,2-dioxaborolan-2-yl)aniline. Vehicle: Di-methyl sulfoxide (DMSO) Purity/Content of drug: 97.95%. Molecular Structure:
(§5) Strains of Salmonella typhimurium used^(4,5,6): TA98, TA100, TA1535, TA97a and TA102. Metabolic activation system^(2): Liver S-9 mix from male rats, Aroclor 1254-pretreated. Per plate, 0.5 mL of 5% S-9 mix was added. Controls: Control treatments comprised additions at the same volume per plate (0.1 mL) as the test item solutions. Negative controls comprised treatments with the chosen vehicle.
(§6) Concentrations tested (Mutaqenicity Study): 50, 158, 501, 1582 and 5000 μg/plate (using all strains+/−S-9). […] Mutagenicity: Data from control treatments confirmed the correct strain and assay functioning, and the data were accepted as valid.
(§7) Acceptance criteria: The assay was considered valid as all the following criteria were met: • 1. Vehicle control counts fell within the normal ranges; • 2. The positive control chemicals induced increases in revertant numbers by 5- to 30-fold for different strains when compared to the concurrent vehicle controls confirming discrimination between different strains, and an active S-9 preparation.
(§8) Evaluation criteria: For valid data, the test item was considered mutagenic in this assay if a concentration related increase in revertant numbers of 2-fold (in strains TA98, TA100, TA1535 or TA97a) or 1.5-fold (in strain TA102) the concurrent vehicle control values was observed. […]

Data set [2] has as its system Salmonella typhimurium TA98, TA100, TA1535, TA97a and TA102. Briefly: AMES testing (bacterial reverse mutation test, Salmonella/microsome assay), all strains. Format: cell-based.
Source text: as §1, §2, §3, §4, §5, §6, §7, §8

Consider `Cc1c(N)cc(F)cc1B1OC(C)(C)C(C)(C)O1` [INT 3, 5-fluoro-2-methyl-3-(4,4,5,5-tetramethyl-1,3,2-dioxaborolan-2-yl)aniline], for which the “increase in the number of revertants over the concurrent vehicle controls” value in data set [1] (Experiment 1, 5000 μg/plate, in the presence of metabolic activation (rat liver S-9)) is reported as 2.3 fold; in data set [1] (Experiment 2, highest test concentration 5000 μg/plate, in presence of metabolic activation (rat liver S-9)), 1.8 fold. Moreover, the “mutagenicity (overall conclusion)” value is recorded as “mutagenic potential” in data set [1] and “weak mutagenic potential” in data set [1] (listed as INT3). For the same compound, the “increase in revertant numbers over the concurrent vehicle controls, other strain treatments” value in data set [2] (any other strain treatments (TA98, TA100, TA1535, TA97a without S-9), 50-5000 μg/plate, +/- S-9) was below 2 fold. The “cytotoxicity to tester strains” value in data set [2] (preliminary cytotoxicity and mutagenicity test, any strain, presence and absence of metabolic activation, up to 5000 μg/plate) is listed as “did not indicate any cytotoxicity”. In addition, the “increase in revertant numbers over the concurrent vehicle controls, strain TA102” value in data set [2] (strain TA102, 50-5000 μg/plate, +/- S-9) is on record as below 1.5 fold. Besides, in data set [2] (up to highest concentration (5000 μg/plate), presence and absence of metabolic activation, vehicle DMSO), the “precipitation of test item” value is “did not precipitate”.

The values above are taken from patent publication US20260209185A1, “SYNTHESIS METHODS AND INTERMEDIATES FOR THE PRODUCTION OF REMIMBRUTINIB” (NOVARTIS AG, priority 2022, published 2026).
